In the experiment the test system is RBL-2H3-cells. In words: Antigen-induced (DNP-BSA) activation of sensitised RBL-2H3 cells, fluorometric calcium measurement. The conditions noted are these: Rattus norvegicus, read-out: inhibition of the antigen-induced cell activation. It is filed as cell-based. Here is the method:
Individual RBL-2H3-cells (a tumour cell line related to the mast cells) adhering to glass slides are used.
The cultivation and attachment of the RBL-2H3-cells are carried out by the method described by HIDE and BEAVEN (1991). In order to sensitise the adhesive RBL-2H3-cells the cells are incubated for 2 hours at ambient temperature with a 1:2000 diluted commercial gammaglobulin E-solution against a dinitrophenol-bovine serum albumin complex (DNP-BSA-antigen). The cells are then washed. By the addition of 0.1 ml of DNP-BSA-solution (10 μg/ml) there is a massive immunological cell activation which is mediated by a cytoplasmic Ca^2+ -overload. The fluorometric calcium measurement in the cytoplasm of individual adhering RBL-2H3-cells is carried out analogously to the method described by KUDO and OGURA (1986) for neuronal cells, which is also explained hereinbefore in this specification.
The comparison used in these investigations is (10 μM) chromoglycate which brings about an approximately 50% inhibition of the antigen-induced cell activation.

Consider `O=C(O)c1cc(=O)c2c(OCC(O)COc3cccc4oc(C(=O)O)cc(=O)c34)cccc2o1` [chromoglycate], for which the inhibition at 10 µM is ~50%.

The term inhibition denotes the relative decrease from the control value, in per cent.

(Values after patent US5968948A, “Annelated dihydropyridines and the use thereof for preparing pharmaceutical preparations” (Boerhinger Ingelheim GmbH, priority 1993, dated 1999).)
